Laboratory results as given in patent US5021562A, “Method for azide displacement of α-triflates of 1,5-lactones” (Monsanto Company, priority 1990, dated 1991).

Columns and labels:
Format in all cases: biochemical
[1] = system: human α-mannosidases; experiment: Inhibition of human α-mannosidases (overall statement, glycosidase panel)
Excerpt: (§1) The relative potencies of these compounds as fucosidase inhibitors may be understood by considering them as analogues of α-L-fucose; all three compounds have the correct chirality of the secondary hydroxyl groups - the minimum requirement for inhibition of α-fucosidase. […] All the compounds are weaker inhibitors of α-fucosidase than is deoxyfuconojirimycin, since they all lack a lipophilic methyl substituent with correct configuration.

[2] = biological target: T1, human liver α-fucosidase (Homo sapiens, UniProt P04066); experiment: Inhibition of human liver α-fucosidase
T1 construct: from tissue; host or cells: human liver
T1 sequence (P04066 32-466): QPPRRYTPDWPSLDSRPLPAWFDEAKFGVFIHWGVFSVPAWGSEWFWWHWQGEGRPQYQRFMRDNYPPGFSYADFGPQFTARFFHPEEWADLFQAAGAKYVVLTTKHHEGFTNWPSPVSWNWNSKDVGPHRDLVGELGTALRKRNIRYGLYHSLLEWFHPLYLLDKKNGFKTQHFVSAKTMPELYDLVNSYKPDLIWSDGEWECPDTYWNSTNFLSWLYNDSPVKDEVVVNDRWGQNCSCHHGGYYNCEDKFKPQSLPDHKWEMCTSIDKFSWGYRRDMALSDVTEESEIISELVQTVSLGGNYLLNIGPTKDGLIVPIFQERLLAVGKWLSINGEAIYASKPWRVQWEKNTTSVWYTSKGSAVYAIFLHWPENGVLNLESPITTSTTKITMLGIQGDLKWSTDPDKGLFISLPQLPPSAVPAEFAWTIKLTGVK
Procedure: % Inhibition of human liver α-fucosidase and α-mannosidase
catalysed hydrolysis of 4-umbelliferyl pyrranosides at
1 mM concentration of inhibitor

[3] = system: β-mannosidase; experiment: Inhibition of human liver β-mannosidase (glycosidase panel)
Excerpt: as §1

| SMILES | inhibition of α-mannosidases (in words) [1] | inhibition of α-fucosidase (in words) [2] | inhibition of β-mannosidase (in words) [3] |
| --- | --- | --- | --- |
| OC[C@@H]1N[C@H](CO)[C@@H](O)[C@@H](O)[C@@H]1O [6-epi-HMJ, 2,6-dideoxy-2,6-imino-L-glycero-D-talo-heptitol] | did not inhibit any α-mannosidase | powerful inhibitors of α-fucosidase |  |
| OC[C@H]1NC[C@@H](O)[C@@H](O)[C@@H]1O [DMJ, reference compound] | very similar | powerful inhibitors of α-fucosidase | Neither compound inhibited β-mannosidase |
| OC[C@H]1N[C@H](CO)[C@@H](O)C(O)[C@@H]1O (stereo partly drawn) [α-HMJ, 2,6-Dideoxy-2,6-imino-D-glycero-D-talo-heptitol] | very similar | only a weak inhibitor | Neither compound inhibited β-mannosidase |
